Results taken from ChEMBL document CHEMBL3616391, “Fatty Acid Synthase (FASN) Inhibitors as Potential Treatment for Cancer, Obesity, and Liver Related Disorders” (ACS Med Chem Lett, 2015).
pIC50: −log10 of the molar value.

Key:
A2780 [1] = assay: Antiproliferative activity against human A2780 cells in lipid reduced medium in absence of palmitate; format: functional, cell-based
A2780 [2] = assay: Antiproliferative activity against human A2780 cells in lipid reduced medium in presence of palmitate; format: functional, cell-based
LNCaP = assay: Antiproliferative activity against human LNCAP cells in lipid reduced medium; format: functional, cell-based
Fatty acid synthase = Fatty acid synthase (Homo sapiens, UniProt P49327); assay: Inhibition of fatty acid synthase keto-reductase domain (unknown origin)
PC-3M = assay: Antiproliferative activity against human PC3M cells expressing Luc-C6 in lipid reduced medium; format: functional, cell-based

Fatty acid synthase, sequence (P49327 whole entry, the tested form may be a part): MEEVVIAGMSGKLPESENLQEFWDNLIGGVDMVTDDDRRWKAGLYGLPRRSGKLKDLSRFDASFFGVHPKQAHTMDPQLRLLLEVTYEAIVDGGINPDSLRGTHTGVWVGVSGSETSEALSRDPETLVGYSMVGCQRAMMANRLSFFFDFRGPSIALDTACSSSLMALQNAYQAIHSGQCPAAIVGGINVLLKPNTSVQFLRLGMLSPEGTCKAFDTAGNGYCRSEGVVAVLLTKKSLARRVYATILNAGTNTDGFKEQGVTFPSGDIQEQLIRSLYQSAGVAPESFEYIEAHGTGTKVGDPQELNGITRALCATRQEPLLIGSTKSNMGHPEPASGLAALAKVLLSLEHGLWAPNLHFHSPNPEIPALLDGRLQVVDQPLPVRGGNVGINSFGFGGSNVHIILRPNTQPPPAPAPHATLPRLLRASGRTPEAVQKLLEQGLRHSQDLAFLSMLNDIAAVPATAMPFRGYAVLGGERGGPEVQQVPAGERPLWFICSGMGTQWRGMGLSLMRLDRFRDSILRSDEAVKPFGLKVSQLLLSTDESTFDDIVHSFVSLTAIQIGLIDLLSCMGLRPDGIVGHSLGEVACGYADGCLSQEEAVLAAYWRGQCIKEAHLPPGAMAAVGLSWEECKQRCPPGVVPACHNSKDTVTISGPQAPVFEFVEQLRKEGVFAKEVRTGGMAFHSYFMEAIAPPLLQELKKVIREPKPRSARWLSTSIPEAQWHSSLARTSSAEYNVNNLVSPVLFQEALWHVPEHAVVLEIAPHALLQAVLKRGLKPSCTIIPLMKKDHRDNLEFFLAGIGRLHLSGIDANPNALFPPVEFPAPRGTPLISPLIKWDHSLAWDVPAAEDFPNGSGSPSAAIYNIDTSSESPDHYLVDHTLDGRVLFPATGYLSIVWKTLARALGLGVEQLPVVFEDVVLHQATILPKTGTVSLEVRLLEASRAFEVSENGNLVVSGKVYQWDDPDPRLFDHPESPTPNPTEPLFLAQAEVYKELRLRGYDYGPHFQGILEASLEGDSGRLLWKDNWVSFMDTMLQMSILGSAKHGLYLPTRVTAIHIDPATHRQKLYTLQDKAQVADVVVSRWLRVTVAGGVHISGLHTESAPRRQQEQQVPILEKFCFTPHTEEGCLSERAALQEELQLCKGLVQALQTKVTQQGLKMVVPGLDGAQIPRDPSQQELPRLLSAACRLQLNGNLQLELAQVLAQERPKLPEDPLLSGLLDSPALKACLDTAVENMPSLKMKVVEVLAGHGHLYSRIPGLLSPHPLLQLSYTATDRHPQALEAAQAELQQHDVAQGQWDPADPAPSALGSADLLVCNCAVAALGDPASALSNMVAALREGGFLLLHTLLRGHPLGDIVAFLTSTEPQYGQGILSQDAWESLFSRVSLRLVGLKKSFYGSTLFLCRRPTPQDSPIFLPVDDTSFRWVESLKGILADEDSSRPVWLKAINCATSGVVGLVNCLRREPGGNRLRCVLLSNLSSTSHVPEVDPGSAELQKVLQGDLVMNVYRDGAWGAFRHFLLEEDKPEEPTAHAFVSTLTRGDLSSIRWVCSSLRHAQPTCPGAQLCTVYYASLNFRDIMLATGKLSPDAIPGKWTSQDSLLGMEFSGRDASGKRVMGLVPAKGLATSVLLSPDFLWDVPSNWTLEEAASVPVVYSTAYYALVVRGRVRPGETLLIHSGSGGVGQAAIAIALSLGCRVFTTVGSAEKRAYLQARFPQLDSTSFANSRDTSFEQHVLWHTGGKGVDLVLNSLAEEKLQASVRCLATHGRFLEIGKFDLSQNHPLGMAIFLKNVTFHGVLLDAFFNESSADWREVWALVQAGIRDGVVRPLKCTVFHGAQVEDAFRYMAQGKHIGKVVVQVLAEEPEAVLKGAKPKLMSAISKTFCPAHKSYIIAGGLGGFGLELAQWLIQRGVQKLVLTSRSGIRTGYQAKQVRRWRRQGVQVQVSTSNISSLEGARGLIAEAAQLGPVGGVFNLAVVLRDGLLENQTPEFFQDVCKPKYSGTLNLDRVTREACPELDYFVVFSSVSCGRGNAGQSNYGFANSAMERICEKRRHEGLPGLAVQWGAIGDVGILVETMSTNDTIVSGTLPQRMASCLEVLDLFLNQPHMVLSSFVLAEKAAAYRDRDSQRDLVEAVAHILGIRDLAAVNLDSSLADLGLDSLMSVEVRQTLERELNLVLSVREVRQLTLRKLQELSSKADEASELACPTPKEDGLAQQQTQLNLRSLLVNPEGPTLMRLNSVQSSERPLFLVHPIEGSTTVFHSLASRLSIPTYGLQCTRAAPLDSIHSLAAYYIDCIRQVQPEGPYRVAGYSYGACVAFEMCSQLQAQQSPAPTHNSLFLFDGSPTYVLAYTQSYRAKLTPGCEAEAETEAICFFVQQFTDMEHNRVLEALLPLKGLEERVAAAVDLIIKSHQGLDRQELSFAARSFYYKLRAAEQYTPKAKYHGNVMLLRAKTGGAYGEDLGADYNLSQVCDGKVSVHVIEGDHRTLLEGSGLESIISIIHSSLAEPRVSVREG

Compound | pIC50 (A2780 [1]) | pIC50 (A2780 [2]) | pIC50 (LNCaP) | pIC50 (Fatty acid synthase) | pIC50 (PC-3M)
CC1(C)N=C(c2ccc(-c3ccc4cccnc4c3)cc2)N(C[C@@H]2CCN(C(=O)C3CC3)C2)C1=O | 7.12 | < 5.00 | 6.66 | 7.25 | 7.27
CC1(C)N=C(c2ccc(-c3ccc4cccc(F)c4c3)cc2)N(CC2CN(C(=O)C3CC3)C2)C1=O | 6.33 | 5.25 | 5.69 | – | –
Cn1ncc2cc(-c3ccc(C4=NC(C)(C)C(=O)N4C[C@@H]4CCN(C(=O)C5CC5)C4)c(F)c3)ccc21 | – | – | 6.14 | – | 6.88
CC1(C)N=C(c2ccc(-c3nc4ccccc4[nH]3)cc2)N(C[C@@H]2CCN(C(=O)C3CC3)C2)C1=O | 5.03 | < 5.00 | – | – | –

More lines, in order of rising pIC50 (A2780 [1]), values ahead:

pIC50 (A2780 [1]) | pIC50 (A2780 [2]) | pIC50 (LNCaP) | pIC50 (Fatty acid synthase) | pIC50 (PC-3M) | Compound
7.13 | < 5.00 | – | – | – | CC1(C)N=C(c2ccc(-c3ccc4[nH]ccc4c3)cc2)N(C[C@@H]2CCN(C(=O)C3CC3)C2)C1=O
8.27 | < 5.00 | – | – | – | Cn1cc(-c2ccc(-c3ccc(C4=NC(C)(C)C(=O)N4C[C@@H]4CCN(C(=O)C5(O)CC5)C4)c(F)c3)cc2)cn1
